Test results: ChEMBL document CHEMBL4673395, “Discovery of PIPE-359, a Brain-Penetrant, Selective M Receptor Antagonist with Robust Efficacy in Murine MOG-EAE” (ACS Med Chem Lett, 2021)
Values belong to the compound of their own block, whether it stands above or below them. The source made the active and inactive calls. The calls are words filed in the database; no cut-off is given here.

Experiments:
[1] = molecular target: T1, Muscarinic acetylcholine receptor M1 (Homo sapiens, UniProt P11229); assay: Antagonist activity at human recombinant muscarinic receptor M1 expressed in CHO-K1 cells assessed as EC80 acetylcholine-induced calcium flux incubated for 30 mins; format: functional, cell-based
T1 sequence (P11229 whole entry): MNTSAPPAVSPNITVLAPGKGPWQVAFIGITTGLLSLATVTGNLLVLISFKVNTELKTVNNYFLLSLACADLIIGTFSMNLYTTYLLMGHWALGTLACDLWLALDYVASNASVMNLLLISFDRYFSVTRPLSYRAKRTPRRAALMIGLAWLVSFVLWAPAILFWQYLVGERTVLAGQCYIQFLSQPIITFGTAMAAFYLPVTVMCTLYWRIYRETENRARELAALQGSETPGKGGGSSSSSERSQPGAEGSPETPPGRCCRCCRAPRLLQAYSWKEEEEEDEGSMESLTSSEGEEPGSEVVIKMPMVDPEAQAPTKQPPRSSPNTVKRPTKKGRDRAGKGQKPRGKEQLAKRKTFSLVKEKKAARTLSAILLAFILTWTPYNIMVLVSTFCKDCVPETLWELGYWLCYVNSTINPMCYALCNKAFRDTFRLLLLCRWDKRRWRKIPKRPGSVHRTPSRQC

[2] = Metabolic stability in rat liver microsomes assessed as parent compound remaining at 1 uM measured at 15 mins by LC-MS/MS analysis; format: ADME, Microsome; settings: read-out: Stabilty
[3] = Apparant permeability across apical to basolateral side in dog MDCK-MDR1 cells; format: ADME, cell-based, Canis lupus familiaris
[4] = molecular target: T2, Muscarinic acetylcholine receptor M3 (Homo sapiens, UniProt P20309); assay: Antagonist activity at human recombinant muscarinic receptor M3 expressed in CHO-K1 cells assessed as EC80 acetylcholine-induced calcium flux incubated for 30 mins; format: functional, cell-based
[5] = molecular target: T3, Muscarinic acetylcholine receptor M2 (Homo sapiens, UniProt P08172); assay: Antagonist activity at human recombinant muscarinic receptor M2 expressed in CHO-K1 cells assessed as EC80 acetylcholine-induced calcium flux incubated for 30 mins; format: functional, cell-based
T3 sequence (P08172 whole entry): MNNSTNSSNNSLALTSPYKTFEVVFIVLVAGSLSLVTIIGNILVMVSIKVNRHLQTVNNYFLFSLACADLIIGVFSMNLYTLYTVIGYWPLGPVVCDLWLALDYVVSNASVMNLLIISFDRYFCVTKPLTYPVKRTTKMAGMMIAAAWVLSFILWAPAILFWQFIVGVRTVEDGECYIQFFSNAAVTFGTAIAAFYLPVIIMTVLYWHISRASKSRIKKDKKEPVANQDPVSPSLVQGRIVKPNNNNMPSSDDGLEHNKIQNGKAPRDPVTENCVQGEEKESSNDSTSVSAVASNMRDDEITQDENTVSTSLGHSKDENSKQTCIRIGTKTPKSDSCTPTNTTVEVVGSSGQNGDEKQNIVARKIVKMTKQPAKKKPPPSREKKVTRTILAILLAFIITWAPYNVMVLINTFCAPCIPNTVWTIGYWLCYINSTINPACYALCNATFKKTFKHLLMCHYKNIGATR

[6] = Brain to plasma permeability coefficient, Kp of the compound in rat at 10 mg/kg, po measured after 2 hrs by LC-MS/MS; format: ADME, organism-based; settings: read-out: K(p,uu,brain)
[7] = molecular target: Voltage-gated inwardly rectifying potassium channel KCNH2 (Homo sapiens, UniProt Q12809); assay: Inhibition of human ERG expressed in HEK293 cells at 3 uM by patch clamp assay; format: cell-based; settings: hek293, 3 µM
[8] = Plasma concentration in rat at 10 mg/kg, po measured after 2 hrs by LC-MS/MS; format: ADME, organism-based
[9] = Fraction unbound in rat plasma at 10 mg/kg, po measured by LC-MS/MS; format: ADME, organism-based
[10] = Fraction unbound rat plasma at 10 mg/kg, po measured after 2 hrs by LC-MS/MS; format: ADME, organism-based; settings: in vivo
[11] = In vivo receptor occupancy at muscarinic M1 receptor in myelin oligodendrocyte glycoprotein (MOG)-induced experimental autoimmune encephalitis C57BL/6 mouse model assessed as decrease in occupancy at 30 mg/kg, po measured after 24 hrs; format: functional; design: Activity: scale not given: the % may be the effect or the level left
[12] = Clearance in rat at 2 mg/kg, iv; format: ADME, organism-based; settings: in vivo
[13] = Half life in rat at 2 mg/kg, iv; format: ADME, organism-based; settings: in vivo
Cytochrome P450 2D6 = Cytochrome P450 2D6 (Homo sapiens, UniProt P10635); assay: Inhibition of human CYP2D6 in pooled human liver microsomes using dextromethorphan as substrate incubated for 20 mins by LC-MS/MS; format: ADME
[14] = Drug uptake in rat brain at 10 mg/kg, po measured after 2 hrs by LC-MS/MS; format: ADME, organism-based; settings: read-out: Drug uptake
[15] = Unbound fraction in rat brain at 10 mg/kg, po measured after 2 hrs by LC-MS/MS; format: ADME, organism-based; settings: in vivo
[16] = Plasma protein binding in rat assessed as unbound fraction; format: ADME, cell-free
[17] = Metabolic stability in human liver microsomes assessed as intrinsic clearance at 1 uM measured up to 60 mins by LC-MS/MS analysis; format: ADME, Microsome; settings: read-out: CLH
[18] = Fraction unbound in rat plasma at 30 mg/kg, po measured after 24 hrs; format: ADME, organism-based; settings: in vivo
[19] = AUC in rat at 2 mg/kg, iv; format: ADME, organism-based; design: dose 2 mg/kg; settings: in vivo
[20] = Oral bioavailability in rat at 10 mg/kg; format: ADME, organism-based; settings: in vivo
[21] = Fraction unbound in rat plasma at 30 mg/kg, po measured after 8 hrs; format: ADME, organism-based; settings: in vivo
[22] = Unbound clearance in rat at 10 mg/kg, po; format: ADME, organism-based; settings: in vivo
Cytochrome P450 3A4 = Cytochrome P450 3A4 (Homo sapiens, UniProt P08684); assay: Inhibition of human CYP3A4 in pooled human liver microsomes using midazolam as substrate incubated for 5 mins by LC-MS/MS; format: ADME
[23] = Metabolic stability in rat liver microsomes assessed as intrinsic clearance at 1 uM measured up to 60 mins by LC-MS/MS analysis; format: ADME, Microsome; settings: read-out: CLH
Cytochrome P450 2C9 = Cytochrome P450 2C9 (Homo sapiens, UniProt P11712); assay: Inhibition of human CYP2C9 in pooled human liver microsomes using diclofenac as substrate incubated for 5 mins by LC-MS/MS; format: ADME
[24] = AUC in rat at 10 mg/kg, po; format: ADME, organism-based; design: dose 10 mg/kg; settings: in vivo
[25] = molecular target: T1, Muscarinic acetylcholine receptor M1; assay: Displacement of [3H]NMS from human recombinant muscarinic receptor M1 expressed in CHO-K1 cell membranes assessed as inhibition constant incubated for 1 hr by Radioligand binding assay
[26] = Metabolic stability in mouse liver microsomes assessed as intrinsic clearance at 1 uM measured up to 60 mins by LC-MS/MS analysis; format: ADME, Microsome; settings: read-out: CLH
[27] = Plasma protein binding in mouse assessed as unbound fraction; format: ADME, cell-free
Mus musculus = assay: In vivo receptor occupancy at muscarinic M1 receptor in myelin oligodendrocyte glycoprotein (MOG)-induced experimental autoimmune encephalitis C57BL/6 mouse model assessed as decrease in occupancy at 30 mg/kg, po measured up to 8 hrs; format: functional, organism-based; settings: time hrs <=8
[28] = Fraction unbound in rat brain at 30 mg/kg, po measured after 24 hrs; format: ADME, organism-based; settings: in vivo
[29] = molecular target: T2, Muscarinic acetylcholine receptor M3; assay: Displacement of [3H]NMS from human recombinant muscarinic receptor M3 expressed in CHO-K1 cell membranes assessed as inhibition constant incubated for 1 hr by Radioligand binding assay
[30] = molecular target: Muscarinic acetylcholine receptor M2 (Homo sapiens, UniProt P08172); assay: Displacement of [3H]NMS from human recombinant muscarinic receptor M2 expressed in CHO-K1 cell membranes assessed as inhibition constant incubated for 1 hr by Radioligand binding assay

T2 sequence (P20309 whole entry): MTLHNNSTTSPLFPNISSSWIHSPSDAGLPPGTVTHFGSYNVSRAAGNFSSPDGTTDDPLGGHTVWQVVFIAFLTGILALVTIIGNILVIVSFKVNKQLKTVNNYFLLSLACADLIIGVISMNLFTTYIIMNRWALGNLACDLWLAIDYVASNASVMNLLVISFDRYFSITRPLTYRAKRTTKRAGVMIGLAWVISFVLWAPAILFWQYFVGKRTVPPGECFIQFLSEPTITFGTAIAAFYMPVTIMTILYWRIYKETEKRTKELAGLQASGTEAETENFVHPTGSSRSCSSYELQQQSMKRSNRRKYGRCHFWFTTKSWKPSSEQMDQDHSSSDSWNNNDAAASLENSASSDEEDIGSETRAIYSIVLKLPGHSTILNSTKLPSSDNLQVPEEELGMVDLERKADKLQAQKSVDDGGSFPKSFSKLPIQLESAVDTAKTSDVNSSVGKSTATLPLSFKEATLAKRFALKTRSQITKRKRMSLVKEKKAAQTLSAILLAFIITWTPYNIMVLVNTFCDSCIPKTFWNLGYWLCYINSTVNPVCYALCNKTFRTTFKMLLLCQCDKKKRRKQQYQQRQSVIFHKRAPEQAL
Cytochrome P450 3A4, sequence (P08684 whole entry): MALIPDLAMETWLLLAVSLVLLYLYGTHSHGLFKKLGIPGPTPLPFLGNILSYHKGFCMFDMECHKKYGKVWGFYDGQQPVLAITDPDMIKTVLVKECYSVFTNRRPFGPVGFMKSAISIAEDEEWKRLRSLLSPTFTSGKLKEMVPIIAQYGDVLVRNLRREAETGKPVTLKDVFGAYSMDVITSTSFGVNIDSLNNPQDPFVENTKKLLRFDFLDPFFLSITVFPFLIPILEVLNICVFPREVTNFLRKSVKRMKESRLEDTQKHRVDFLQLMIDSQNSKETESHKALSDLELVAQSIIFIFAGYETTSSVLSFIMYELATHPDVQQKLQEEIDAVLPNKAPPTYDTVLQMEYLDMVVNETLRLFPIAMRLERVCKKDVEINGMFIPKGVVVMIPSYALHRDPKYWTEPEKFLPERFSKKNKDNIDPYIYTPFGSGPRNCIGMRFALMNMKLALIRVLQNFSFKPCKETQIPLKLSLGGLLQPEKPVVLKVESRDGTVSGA
Voltage-gated inwardly rectifying potassium channel KCNH2, sequence (Q12809 whole entry): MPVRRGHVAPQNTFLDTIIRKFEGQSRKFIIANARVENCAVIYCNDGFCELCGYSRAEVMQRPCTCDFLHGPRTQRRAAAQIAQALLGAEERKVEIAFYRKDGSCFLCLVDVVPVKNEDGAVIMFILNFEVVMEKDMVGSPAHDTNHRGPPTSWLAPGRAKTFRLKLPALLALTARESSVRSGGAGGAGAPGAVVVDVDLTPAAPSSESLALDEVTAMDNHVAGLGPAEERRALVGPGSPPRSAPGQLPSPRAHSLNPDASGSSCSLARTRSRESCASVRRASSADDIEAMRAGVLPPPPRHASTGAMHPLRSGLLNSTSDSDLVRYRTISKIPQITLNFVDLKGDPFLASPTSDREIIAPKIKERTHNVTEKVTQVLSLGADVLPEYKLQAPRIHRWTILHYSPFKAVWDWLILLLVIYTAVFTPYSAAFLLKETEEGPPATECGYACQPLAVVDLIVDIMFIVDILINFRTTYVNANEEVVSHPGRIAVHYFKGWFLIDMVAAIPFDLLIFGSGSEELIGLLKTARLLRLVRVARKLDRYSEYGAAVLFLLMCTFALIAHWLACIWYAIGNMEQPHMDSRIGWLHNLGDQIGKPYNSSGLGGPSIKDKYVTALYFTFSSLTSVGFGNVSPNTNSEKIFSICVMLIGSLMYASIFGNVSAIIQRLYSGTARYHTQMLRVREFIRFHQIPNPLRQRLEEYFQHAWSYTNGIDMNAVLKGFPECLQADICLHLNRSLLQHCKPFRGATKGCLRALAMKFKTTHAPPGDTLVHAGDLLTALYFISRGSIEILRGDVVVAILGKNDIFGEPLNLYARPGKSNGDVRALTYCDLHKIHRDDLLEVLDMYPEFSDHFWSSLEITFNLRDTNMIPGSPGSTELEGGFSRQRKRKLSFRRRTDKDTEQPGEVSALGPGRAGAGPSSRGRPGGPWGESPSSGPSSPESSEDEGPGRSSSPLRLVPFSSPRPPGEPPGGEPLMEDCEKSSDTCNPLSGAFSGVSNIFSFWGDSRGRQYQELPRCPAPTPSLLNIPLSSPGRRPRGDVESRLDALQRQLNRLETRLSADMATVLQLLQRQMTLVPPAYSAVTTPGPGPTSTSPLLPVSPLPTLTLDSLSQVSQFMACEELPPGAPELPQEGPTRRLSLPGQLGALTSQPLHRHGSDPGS
Cytochrome P450 2C9, sequence (P11712 whole entry): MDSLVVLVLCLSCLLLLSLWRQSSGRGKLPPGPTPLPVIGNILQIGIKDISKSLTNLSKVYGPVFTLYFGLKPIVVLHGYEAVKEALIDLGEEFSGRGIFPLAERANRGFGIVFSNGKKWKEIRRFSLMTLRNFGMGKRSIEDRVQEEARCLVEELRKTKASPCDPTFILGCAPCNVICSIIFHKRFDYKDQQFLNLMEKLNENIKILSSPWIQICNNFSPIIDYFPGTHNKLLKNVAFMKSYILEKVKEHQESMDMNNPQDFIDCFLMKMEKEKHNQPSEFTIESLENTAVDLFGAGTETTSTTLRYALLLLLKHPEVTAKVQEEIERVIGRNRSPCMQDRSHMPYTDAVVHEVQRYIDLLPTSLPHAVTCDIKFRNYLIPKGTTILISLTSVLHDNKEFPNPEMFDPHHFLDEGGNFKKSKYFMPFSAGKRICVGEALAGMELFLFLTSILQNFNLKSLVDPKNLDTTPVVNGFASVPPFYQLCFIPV
Cytochrome P450 2D6, sequence (P10635 whole entry): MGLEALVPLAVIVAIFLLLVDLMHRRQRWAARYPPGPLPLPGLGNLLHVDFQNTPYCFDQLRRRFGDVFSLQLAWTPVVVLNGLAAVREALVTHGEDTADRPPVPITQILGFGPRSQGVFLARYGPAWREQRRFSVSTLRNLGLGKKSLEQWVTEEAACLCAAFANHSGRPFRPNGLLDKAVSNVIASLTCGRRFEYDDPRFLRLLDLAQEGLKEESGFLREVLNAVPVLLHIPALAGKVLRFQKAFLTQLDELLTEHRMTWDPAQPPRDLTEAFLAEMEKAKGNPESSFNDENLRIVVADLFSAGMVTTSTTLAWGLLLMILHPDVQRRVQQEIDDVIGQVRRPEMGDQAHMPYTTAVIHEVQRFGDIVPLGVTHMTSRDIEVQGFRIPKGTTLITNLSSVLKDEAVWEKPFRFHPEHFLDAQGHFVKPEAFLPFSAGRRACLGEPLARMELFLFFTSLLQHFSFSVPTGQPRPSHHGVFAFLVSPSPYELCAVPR

Compound: O=C(CCCc1cccc2ncccc12)N1CC2(C1)CN(c1ccc(F)cn1)C2
- IC50 ([1]; read-out: IC50): > 20000 nM
- IC50 ([1]; read-out: pIC50 (converted)): > 10000 nM

Compound: O=C(CCCc1cccc2ncccc12)N1CC2CC1CN2c1ccc(F)cn1 (racemic)
- IC50 ([1]; read-out: IC50): 950 nM

Compound: Cc1cc(F)cnc1N1CCN(C(=O)CCCc2cccc3ncccc23)[C@@H](C)C1
- Papp A→B [3]: 8 ×10⁻⁶ cm/s
- IC50 ([4]; read-out: pIC50 (converted)): 1260 nM
- IC50 ([5]; read-out: pIC50 (converted)): 2000 nM
- remaining at 0.25 h, 1 µM [2]: 0.2%

Compound: O=C(CCCc1cccc2ncccc12)N1CCN(c2ccncc2F)CC1
- IC50 ([1]; read-out: IC50): 490 nM

Compound: Cc1cc(F)cnc1N1CCN(C(=O)CNCc2cccc3ncsc23)[C@@H](C)C1
- IC50 ([1]; read-out: IC50): 3000 nM

Compound: Cc1cc(F)cnc1N1CCN(C(=O)CCCS(=O)(=O)c2cccc3ncsc23)[C@@H](C)C1
- IC50 ([1]; read-out: IC50): 1900 nM

Compound: N#Cc1ccc(N2C3CCC2CN(C(=O)CCS(=O)(=O)c2cccc4ncsc24)C3)nc1
- clearance [12]: 56 mL/min/kg
- half-life [13]: 54 min
- IC50 (Cytochrome P450 2D6): > 10000 nM
- concentration at 2 h [14]: 26 nM
- Drug uptake(free) [15]: 3.4 nM
- fraction unbound [16]: 0.2
- microsomal CLint at 1 µM [17]: 42 µL/min/mg
- Cp(f) [18]: 2.9 nM
- IC50 ([1]; read-out: IC50): 1.8 nM
- AUC [19]: 100 ng·h/mL
- Papp A→B [3]: 7.7 ×10⁻⁶ cm/s
- bioavailability [20]: 4.5%
- Cp(f) [21]: 117 nM
- CL free [22]: 273 mL/min/kg
- IC50 (Cytochrome P450 3A4): > 10000 nM
- microsomal CLint at 1 µM [23]: 23 µL/min/mg
- IC50 (Cytochrome P450 2C9): > 10000 nM
- AUC [24]: 21 ng·h/mL
- Ki [25]: 0.14 nM
- microsomal CLint at 1 µM [26]: 21 µL/min/mg
- fraction unbound [27]: 0.18
- Occ (Mus musculus): Active
- Drug uptake(free) [28]: 0.12 nM
- IC50 ([4]; read-out: IC50): 55 nM
- IC50 ([5]; read-out: IC50): 200 nM
- Ki [29]: 0.84 nM
- Ki [30]: 19 nM
- Activity [11]: 40%

Compound: O=C(CCS(=O)(=O)c1cccc2ncsc12)N1CCN(c2ccncc2F)CC1
- IC50 ([1]; read-out: IC50): 380 nM
- remaining at 0.25 h, 1 µM [2]: 29%

Compound: Cc1cc(F)cnc1N1CCN(C(=O)CCCc2cccc3nc(N)sc23)[C@@H](C)C1
- remaining at 0.25 h, 1 µM [2]: 3.7%

The remaining compounds from weak to strong by IC50 ([1]; read-out: IC50), led by results:

- IC50 ([1]; read-out: IC50): 330 nM
Compound: C[C@@H]1CN(C(=O)CCS(=O)(=O)c2cccc3ncsc23)[C@@H](C)CN1c1ccc(C#N)cn1 (racemic)

- IC50 ([1]; read-out: IC50): 160 nM
- remaining at 0.25 h, 1 µM [2]: 31%
Compound: O=C(CCS(=O)(=O)c1cccc2ncsc12)N1CCN(c2ccc(Cl)cn2)CC1

- IC50 ([1]; read-out: IC50): 80 nM
Compound: N#Cc1ccc(C2=CCN(C(=O)CCS(=O)(=O)c3cccc4ncsc34)CC2)nc1

- IC50 ([1]; read-out: IC50): 69 nM
Compound: Cc1cc(F)cnc1N1CCN(C(=O)CCCc2cccc3ncccc23)CC1

- IC50 ([1]; read-out: IC50): 65 nM
Compound: N#Cc1cc(N2CCN(C(=O)CCCc3cccc4ncccc34)CC2)ccn1

- IC50 ([1]; read-out: IC50): 38 nM
Compound: C[C@@H]1CN(c2ccncc2Cl)CCN1C(=O)CCCc1cccc2ncccc12

- IC50 ([1]; read-out: IC50): 32 nM
- remaining at 0.25 h, 1 µM [2]: 41%
Compound: O=C(CCS(=O)(=O)c1cccc2ncsc12)N1CCN(c2ccc(C(F)(F)F)cn2)CC1

- IC50 ([1]; read-out: IC50): 25 nM
Compound: N#Cc1ccc(N2CC3CCC2CN3C(=O)CCS(=O)(=O)c2cccc3ncsc23)nc1 (racemic)

- IC50 ([1]; read-out: IC50): 22 nM
Compound: CC1CN(c2ccc(C#N)cn2)CCN1C(=O)CCS(=O)(=O)c1cccc2ncsc12 (racemic)

- IC50 ([1]; read-out: IC50): 19 nM
Compound: N#Cc1ccc(C2CCN(C(=O)CCS(=O)(=O)c3cccc4ncsc34)CC2)nc1

- Kp uu at 2 h [6]: 0.17
- IC50 ([1]; read-out: IC50): 5.8 nM
- concentration at 2 h [8]: 89 nM
- fraction unbound [9]: 0.15
- Cp(f) [10]: 13 nM
- remaining at 0.25 h, 1 µM [2]: 59%
Compound: N#Cc1ccc(N2CCN(C(=O)CCS(=O)(=O)c3cccc4ncsc34)CC2)nc1
- inhibition (INH) [7]: 69%
- Occ [11]: 50%

- IC50 ([1]; read-out: IC50): 5.8 nM
Compound: CC1CN(C(=O)CCS(=O)(=O)c2cccc3ncsc23)CCN1c1ccc(C#N)cn1 (racemic)
